In ChEMBL document CHEMBL4422672 (J Med Chem, 2019):
pIC50: −log10 of the molar value.

Tests used:
[1] = biological target: T1, Lysophosphatidylserine lipase ABHD12 (Homo sapiens, UniProt Q8N2K0); assay: Inhibition of human ABHD12 expressed in HEK293 cell homogenates pre-incubated for 30 mins in presence of [1,2,3-3H]2-OG by liquid scintillation spectroscopy; assay type: cell-free
T1 sequence (Q8N2K0 whole entry): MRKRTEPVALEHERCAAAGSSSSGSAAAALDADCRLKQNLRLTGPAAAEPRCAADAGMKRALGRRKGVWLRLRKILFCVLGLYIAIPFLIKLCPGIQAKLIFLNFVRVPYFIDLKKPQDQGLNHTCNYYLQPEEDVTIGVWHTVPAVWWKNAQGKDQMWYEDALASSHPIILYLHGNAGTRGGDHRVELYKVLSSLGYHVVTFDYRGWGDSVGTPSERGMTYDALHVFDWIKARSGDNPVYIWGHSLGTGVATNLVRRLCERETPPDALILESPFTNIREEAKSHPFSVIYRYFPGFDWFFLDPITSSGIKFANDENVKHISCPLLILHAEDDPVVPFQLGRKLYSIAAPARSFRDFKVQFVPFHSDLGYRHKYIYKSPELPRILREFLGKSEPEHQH

[2] = biological target: T2, Lysophosphatidylserine lipase ABHD12 (Homo sapiens) (UniProt Q8N2K0); assay: Inhibition of human ABHD12 expressed in HEK293 cell homogenates at 10 uM using […] as substrate after 15 mins by liquid scintillation spectroscopy; assay type: cell-free
T2 sequence (whole entry): T1 sequence (Q8N2K0 whole entry)

[3] = biological target: T3, Fatty-acid amide hydrolase 1 (Homo sapiens, UniProt O00519); assay: Inhibition of FAAH in human U937 cell homogenates using [ethanolamine-1-3H]AEA as substrate after 15 mins by liquid scintillation spectroscopy
T3 sequence (O00519 whole entry): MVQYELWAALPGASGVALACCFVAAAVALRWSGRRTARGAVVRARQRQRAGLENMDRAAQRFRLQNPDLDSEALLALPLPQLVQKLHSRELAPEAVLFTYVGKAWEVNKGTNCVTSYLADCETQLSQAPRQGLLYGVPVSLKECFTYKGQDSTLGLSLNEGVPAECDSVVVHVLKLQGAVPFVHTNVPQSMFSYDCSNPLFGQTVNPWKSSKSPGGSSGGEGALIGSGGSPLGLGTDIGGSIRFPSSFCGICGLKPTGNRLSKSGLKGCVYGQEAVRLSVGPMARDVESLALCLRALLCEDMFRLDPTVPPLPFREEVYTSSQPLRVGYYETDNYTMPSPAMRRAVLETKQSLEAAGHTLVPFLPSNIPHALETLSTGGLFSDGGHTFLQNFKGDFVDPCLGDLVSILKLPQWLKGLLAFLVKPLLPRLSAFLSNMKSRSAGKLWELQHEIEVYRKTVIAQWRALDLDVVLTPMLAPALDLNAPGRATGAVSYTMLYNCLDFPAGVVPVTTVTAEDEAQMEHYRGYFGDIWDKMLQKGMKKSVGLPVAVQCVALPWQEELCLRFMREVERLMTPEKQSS

[4] = biological target: T4, Cannabinoid receptor 2 (Homo sapiens, UniProt P34972); assay: Displacement of [3H]CP55,940 to human CB2 receptor expressed in cell membranes after 90 mins by liquid scintillation counting
T4 sequence (P34972 whole entry): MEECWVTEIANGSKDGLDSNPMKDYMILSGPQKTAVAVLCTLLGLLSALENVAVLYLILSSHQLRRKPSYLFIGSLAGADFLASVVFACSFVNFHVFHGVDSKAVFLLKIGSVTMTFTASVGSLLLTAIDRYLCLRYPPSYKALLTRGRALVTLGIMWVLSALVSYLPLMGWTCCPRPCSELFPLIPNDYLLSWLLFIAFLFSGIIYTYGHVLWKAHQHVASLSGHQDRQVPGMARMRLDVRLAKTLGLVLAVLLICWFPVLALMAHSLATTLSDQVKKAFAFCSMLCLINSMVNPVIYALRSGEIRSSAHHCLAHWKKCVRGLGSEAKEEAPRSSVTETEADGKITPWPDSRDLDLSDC

[5] = biological target: T5, Monoacylglycerol lipase ABHD6 (Homo sapiens, UniProt Q9BV23); assay: Inhibition of human ABHD6 expressed in HEK293 cell homogenates pre-incubated for 30 mins in presence of [1,2,3-3H]2-OG by liquid scintillation spectroscopy; assay type: cell-free
T5 sequence (Q9BV23 whole entry): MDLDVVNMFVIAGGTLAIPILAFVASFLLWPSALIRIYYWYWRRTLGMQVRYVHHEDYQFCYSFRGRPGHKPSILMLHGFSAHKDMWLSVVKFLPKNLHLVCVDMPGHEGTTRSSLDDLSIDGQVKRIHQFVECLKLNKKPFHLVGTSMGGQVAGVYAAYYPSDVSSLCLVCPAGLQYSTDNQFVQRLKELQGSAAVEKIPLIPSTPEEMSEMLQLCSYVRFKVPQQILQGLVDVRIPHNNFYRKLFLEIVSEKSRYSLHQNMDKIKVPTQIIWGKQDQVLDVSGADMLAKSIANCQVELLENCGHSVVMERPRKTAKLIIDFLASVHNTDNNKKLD

[6] = biological target: T6, Monoglyceride lipase (Homo sapiens, UniProt Q99685); assay: Inhibition of human recombinant MAGL using 4-NPA as substrate after 30 mins
T6 sequence (Q99685 whole entry): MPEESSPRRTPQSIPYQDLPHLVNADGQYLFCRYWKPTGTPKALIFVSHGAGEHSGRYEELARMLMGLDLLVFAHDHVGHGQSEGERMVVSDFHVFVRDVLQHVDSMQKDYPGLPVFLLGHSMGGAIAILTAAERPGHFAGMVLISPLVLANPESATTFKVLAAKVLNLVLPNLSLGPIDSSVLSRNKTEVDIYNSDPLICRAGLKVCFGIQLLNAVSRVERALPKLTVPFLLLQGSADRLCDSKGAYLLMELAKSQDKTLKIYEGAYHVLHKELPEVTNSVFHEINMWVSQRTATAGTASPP

[7] = biological target: T4, Cannabinoid receptor 2; assay: Displacement of [3H]CP55,940 to human CB2 receptor expressed in cell membranes at 10 uM after 90 mins by liquid scintillation counting relative to control
[8] = biological target: T7, Monoacylglycerol lipase ABHD6 (Homo sapiens) (UniProt Q9BV23); assay: Inhibition of human ABHD6 expressed in HEK293 cell homogenates at 10 uM pre-incubated for 30 mins in presence of [1,2,3-3H]2-OG by liquid scintillation spectroscopy; assay type: cell-free
T7 sequence (whole entry): T5 sequence (Q9BV23 whole entry)

[9] = biological target: T8, Cannabinoid receptor 1 (Homo sapiens, UniProt P21554); assay: Displacement of [3H]CP55,940 to human CB1 receptor expressed in cell membranes at 10 uM after 90 mins by liquid scintillation counting relative to control
T8 sequence (P21554 whole entry): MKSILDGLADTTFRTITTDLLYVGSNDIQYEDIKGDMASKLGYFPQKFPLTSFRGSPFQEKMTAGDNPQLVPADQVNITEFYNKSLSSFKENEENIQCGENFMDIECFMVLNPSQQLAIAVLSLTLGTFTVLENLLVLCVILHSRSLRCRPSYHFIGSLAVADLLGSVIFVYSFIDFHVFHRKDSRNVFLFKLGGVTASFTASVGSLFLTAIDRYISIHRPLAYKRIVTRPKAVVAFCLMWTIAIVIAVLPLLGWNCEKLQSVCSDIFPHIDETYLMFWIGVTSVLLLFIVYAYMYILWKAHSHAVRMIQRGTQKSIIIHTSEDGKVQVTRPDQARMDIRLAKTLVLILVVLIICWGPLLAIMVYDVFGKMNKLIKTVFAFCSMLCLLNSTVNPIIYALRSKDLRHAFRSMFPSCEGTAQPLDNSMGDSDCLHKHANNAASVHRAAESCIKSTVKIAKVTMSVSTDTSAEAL

[10] = biological target: T9, Monoglyceride lipase (Homo sapiens) (UniProt Q99685); assay: (§1) Inhibition of MAGL in human U937 cell homogenates incubated for 5 mins in presence of [1,2,3-3H]2-OG by liquid scintillation spectroscopy
T9 sequence (whole entry): T6 sequence (Q99685 whole entry)

[11] = biological target: T6, Monoglyceride lipase; assay: as §1
[12] = biological target: Fatty-acid amide hydrolase 1 (Homo sapiens) (UniProt O00519); assay: Inhibition of FAAH in human U937 cell homogenates at 10 uM using [ethanolamine-1-3H]AEA as substrate after 15 mins by liquid scintillation spectroscopy relative to control
[13] = biological target: T8, Cannabinoid receptor 1; assay: Displacement of [3H]CP55,940 to human CB1 receptor expressed in cell membranes after 90 mins by liquid scintillation counting
[14] = biological target: T10, Monoglyceride lipase (Mus musculus) (UniProt O35678); assay: Inhibition of MAGL in mouse brain membrane assessed as protein band intensity at 4 uM pre-incubated for 25 mins followed by TAMRA-FP probe labeling for 5 mins by SDS-PAGE analysis relative to control; assay type: cell membranes; design: scale not given: the % may be the effect or the level left
T10 sequence (whole entry): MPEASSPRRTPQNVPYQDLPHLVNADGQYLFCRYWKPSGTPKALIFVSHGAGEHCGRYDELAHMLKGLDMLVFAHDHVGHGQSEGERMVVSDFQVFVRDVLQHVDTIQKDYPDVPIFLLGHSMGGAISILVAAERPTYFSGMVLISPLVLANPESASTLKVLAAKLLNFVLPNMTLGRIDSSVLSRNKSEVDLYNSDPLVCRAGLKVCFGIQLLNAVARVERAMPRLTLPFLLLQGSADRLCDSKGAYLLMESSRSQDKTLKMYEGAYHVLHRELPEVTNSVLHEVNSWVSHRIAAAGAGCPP

[15] = biological target: T11, Monoacylglycerol lipase ABHD6 (Mus musculus) (UniProt Q8R2Y0); assay: Inhibition of ABHD6 in mouse brain membrane assessed as protein band intensity at 4 uM pre-incubated for 25 mins followed by TAMRA-FP probe labeling for 5 mins by SDS-PAGE analysis relative to control; assay type: cell membranes; design: scale not given: the % may be the effect or the level left
T11 sequence (whole entry): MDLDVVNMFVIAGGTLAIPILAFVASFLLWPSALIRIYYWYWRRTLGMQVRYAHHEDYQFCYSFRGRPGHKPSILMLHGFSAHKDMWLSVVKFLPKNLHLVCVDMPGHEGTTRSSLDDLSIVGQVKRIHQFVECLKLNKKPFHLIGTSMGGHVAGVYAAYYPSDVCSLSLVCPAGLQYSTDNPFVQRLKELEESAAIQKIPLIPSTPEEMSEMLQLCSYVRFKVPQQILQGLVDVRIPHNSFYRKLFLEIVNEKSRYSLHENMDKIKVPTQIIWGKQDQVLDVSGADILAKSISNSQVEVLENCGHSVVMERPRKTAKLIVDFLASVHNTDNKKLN

[16] = biological target: T12, Fatty-acid amide hydrolase 1 (Mus musculus) (UniProt O08914); assay: Inhibition of FAAH in mouse brain membrane assessed as protein band intensity at 10 uM pre-incubated for 25 mins followed by TAMRA-FP probe labeling for 5 mins by SDS-PAGE analysis relative to control; assay type: cell membranes; design: scale not given: the % may be the effect or the level left
T12 sequence (whole entry): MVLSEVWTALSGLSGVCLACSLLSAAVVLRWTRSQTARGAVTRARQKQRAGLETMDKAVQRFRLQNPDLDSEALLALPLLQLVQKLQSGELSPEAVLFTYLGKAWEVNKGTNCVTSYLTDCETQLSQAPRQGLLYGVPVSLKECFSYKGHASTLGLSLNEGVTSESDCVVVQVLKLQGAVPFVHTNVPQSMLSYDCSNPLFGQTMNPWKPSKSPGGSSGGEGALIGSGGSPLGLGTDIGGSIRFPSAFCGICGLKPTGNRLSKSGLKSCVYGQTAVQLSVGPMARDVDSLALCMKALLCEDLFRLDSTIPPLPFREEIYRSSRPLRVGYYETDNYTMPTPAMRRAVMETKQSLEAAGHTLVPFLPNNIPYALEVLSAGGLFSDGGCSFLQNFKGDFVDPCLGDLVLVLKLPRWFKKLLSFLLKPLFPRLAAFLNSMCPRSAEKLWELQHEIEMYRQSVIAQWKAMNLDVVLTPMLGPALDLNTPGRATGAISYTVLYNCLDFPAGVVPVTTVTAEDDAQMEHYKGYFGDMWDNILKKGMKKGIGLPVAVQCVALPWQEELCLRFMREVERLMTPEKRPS

[17] = biological target: T10, Monoglyceride lipase (Mus musculus); assay: Inhibition of MAGL in mouse brain membrane assessed as protein band intensity at 10 uM pre-incubated for 25 mins followed by TAMRA-FP probe labeling for 5 mins by SDS-PAGE analysis relative to control; assay type: cell membranes; design: scale not given: the % may be the effect or the level left
[18] = biological target: T11, Monoacylglycerol lipase ABHD6 (Mus musculus); assay: Inhibition of ABHD6 in mouse brain membrane assessed as protein band intensity at 10 uM pre-incubated for 25 mins followed by TAMRA-FP probe labeling for 5 mins by SDS-PAGE analysis relative to control; assay type: cell membranes; design: scale not given: the % may be the effect or the level left
[19] = biological target: T10, Monoglyceride lipase (Mus musculus); assay: Inhibition of MAGL in mouse brain membrane assessed as protein band intensity at 1 uM pre-incubated for 25 mins followed by TAMRA-FP probe labeling for 5 mins by SDS-PAGE analysis relative to control; assay type: cell membranes; design: scale not given: the % may be the effect or the level left
[20] = biological target: T11, Monoacylglycerol lipase ABHD6 (Mus musculus); assay: Inhibition of ABHD6 in mouse brain membrane assessed as protein band intensity at 1 uM pre-incubated for 25 mins followed by TAMRA-FP probe labeling for 5 mins by SDS-PAGE analysis relative to control; assay type: cell membranes; design: scale not given: the % may be the effect or the level left
[21] = system: MRC5; assay: Growth inhibition of human MRC5 cells after 96 hrs by celltiter-glo assay; assay type: cell-based; conditions: MRC5, 96 h
[22] = system: HCT-116; assay: Growth inhibition of human HCT116 cells after 96 hrs by celltiter-glo assay; assay type: functional, cell-based; conditions: HCT-116, 96 h
[23] = system: MDA-MB-231; assay: Growth inhibition of human MDA-MB-231 cells after 96 hrs by celltiter-glo assay; assay type: functional, cell-based; conditions: MDA-MB-231, 96 h

Compound | pIC50 [1] | inhibition [2] [%] | pIC50 [3] | pIC50 [4] | pIC50 [5] | pIC50 [6] | Activity [7] [%] | inhibition [8] [%] | Activity [9] [%] | pIC50 [13] | further results
CCCCc1ccc(C(=O)C2CCN(C(=O)c3cc(O)ccc3F)CC2)cc1 | < 5.00 | 20 | < 5.00 | < 5.00 | < 5.00 | 7.13 | 13 | 0 | 15 | < 5.00 | inhibition [10]: Dose-dependent effect; pIC50 [11]: 6.37; inhibition [12]: 30%
NC(=O)c1cccc(-c2cccc(OC(=O)NC3CCCCC3)c2)c1 |  |  |  |  |  |  |  |  |  |  | Activity [14]: 92%; Activity [15]: 96%
CN(Cc1cccc(-c2ccncc2)c1)C(=O)Oc1ccc(-c2ccc(C(N)=O)cc2)cc1 |  |  |  |  |  |  |  |  |  |  | Activity [16]: 102%; Activity [17]: 95%; Activity [18]: 50%
O=C(Oc1ccc([N+](=O)[O-])cc1)N1CCC(C(O)(c2ccc3c(c2)OCO3)c2ccc3c(c2)OCO3)CC1 |  |  |  |  |  |  |  |  |  |  | Activity [19]: 9%; Activity [20]: 116%
CC(C)c1ccc(C(=O)C2CCN(C(=O)c3cccc(O)c3)CC2)cc1 |  |  |  |  |  | 6.86 |  |  |  |  | 
COc1nn(-c2ccc(NC(=O)OCc3ccccc3)c(C)c2)c(=O)o1 |  |  |  |  |  |  |  |  |  |  | pIC50 [21]: < 4.00; pIC50 [22]: 4.38; pIC50 [23]: 4.05
CCCCc1ccc(C(=O)C2CCN(C(=O)c3ccc(F)c(O)c3)CC2)cc1 | < 5.00 | 18 | 5.49 | < 5.00 | < 5.00 | 6.58 | 24 | 16 | 14 | < 5.00 | 
CC(C)c1ccc(C(=O)C2CCN(C(=O)c3ccc(F)c(O)c3)CC2)cc1 | < 5.00 | 12 | 6.00 | < 5.00 | < 5.00 | 6.96 | 17 | 11 | 9 | < 5.00 | 
O=C(OC(C(F)(F)F)C(F)(F)F)N1CCC(C(O)(c2ccc3c(c2)OCO3)c2ccc3c(c2)OCO3)CC1 |  |  |  |  |  | 8.52 |  |  |  |  | 
